{
  "source": "patent US20190002436A1",
  "about": "“RESPIRATORY SYNCYTIAL VIRUS INHIBITORS” (MEDIVIR AB, priority 2015, published 2019)",
  "data": [
    {"system": "RSV (Long)", "experiment": "RSV cytopathic effect (CPE)-based viral replication assay", "type": "cell-based, respiratory syncytial virus (RSV)", "settings": "HEp-2 cells infected with RSV Long at MOI 0.015; 3 days at 37° C.; cell viability by CellTiter-Glo luminescence; read-out: EC50 (nm)", "procedure,_shortened": "(§1)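 HEp-2 cells, 2,500 per well in DMEM with 2% heat-inactivated FBS, treated with 10-point compound dilutions and infected with RSV Long at MOI 0.015. After 3 days at 37 °C, 5% CO2, viability read by CellTiter-Glo luminescence; EC50 derived from CPE data.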", "units": {"EC50": "nM"}, "values": [
      {"molecule": "O=C1N(Cc2ncc3ccccc3c2-c2ccc(F)nc2)c2ccccc2C12CC(NCCF)C2", "note": "(single isomer, unassigned) [Example 87-1, 3-((2-fluoroethyl)amino)-1′-((4-(6-fluoropyridin-3-yl)isoquinolin-3-yl)methyl)spiro[cyclobutane-1,3′-indolin]-2′-one]", "EC50": 21},
      {"molecule": "CS(=O)(=O)N1CCC2(CC1)C(=O)N(Cc1ncc3ccccc3c1CCCCO)c1cnccc12", "note": "[Example 37c, 1′-((4-(4-Hvdroxybutyl)isoquinolin-3-yl)methyl)-1-(methylsulfonyl)spiro[piperidine-4,3′-pyrrolo[2,3-c]pyridin]-2′(1′H)-one]", "EC50": 7.2}
    ]},
    {"system": "RSV (Long)", "experiment": "RSV cytopathic effect (CPE)-based viral replication assay", "type": "cell-based, respiratory syncytial virus (RSV)", "settings": "human respiratory syncytial virus, HEp-2, 72 h, HEp-2 cells infected with RSV Long at MOI 0.015; 3 days at 37° C.; cell viability by CellTiter-Glo luminescence; read-out: EC50 (nm)", "procedure,_shortened": "as §1", "units": {"EC50": "nM"}, "values": [
      {"molecule": "COC(=O)N1CCC(n2c(=O)n(Cc3ncc4cc(Cl)ccc4c3CCCCO)c3cnccc32)CC1", "note": "[Example 20, Methyl 4-(3-((7-chloro-4-(4-hydroxybutyl)isoquinolin-3-yl)methyl)-2-oxo-2,3-dihydro-1H-imidazo[4,5-c]pyridin-1-yl)piperidine-1-carboxylate]", "EC50": 8.5},
      {"molecule": "CS(=O)(=O)N1CCC2(CC1)C(=O)N(Cc1ncc3cc(F)ccc3c1-c1cncs1)c1cnccc12", "note": "[Example 2010]", "EC50": 1.5},
      {"molecule": "NC(=O)c1ccc(-c2c(CN3C(=O)C4(CCN(C(=O)[C@@H]5CCCN5)CC4)c4ccncc43)ncc3ccccc23)cn1", "note": "[Example 2033]", "EC50": 27},
      {"molecule": "NC1(C(=O)N2CCC3(CC2)C(=O)N(Cc2ncc4ccccc4c2-c2cc[nH]c2)c2cnccc23)CC1", "note": "[Example 2031]", "EC50": 120},
      {"molecule": "O=C(N1CCOCC1)N1CC2(C1)C(=O)N(Cc1ncc3ccccc3c1-c1cccnc1)c1ccccc12", "note": "[Example 148b, 1-(morpholine-4-carbonyl)-1′-((4-(pyridin-3-yl)isoquinolin-3-yl)methyl)spiro[azetidine-3,3′-indolin]-2′-one]", "EC50": 7.2},
      {"molecule": "CNC1(C(=O)N2CCC3(CC2)C(=O)N(Cc2ncc4ccccc4c2-c2ccc(F)nc2)c2cnccc23)CC1", "note": "[Example 111c, 1′-((4-(6-fluoropyridin-3-yl)isoquinolin-3-yl)methyl)-1-(1-(methylamino)cyclopropanecarbonyl)spiro[piperidine-4,3′-pyrrolo[2,3-c]pyridin-]2′(1′H)-one]", "EC50": 1.4},
      {"molecule": "NC1(C(=O)N2CCC3(CC2)C(=O)N(Cc2ncc4ccccc4c2-c2cn[nH]c2)c2cnccc23)CC1", "note": "[Example 2030]", "EC50": 5.7},
      {"molecule": "CC1(n2c(=O)n(Cc3ncc4ccccc4c3-c3ccc(C4(N)CC4)nc3)c3cnccc32)CC1", "note": "[Example 2001]", "EC50": 9.5},
      {"molecule": "CC(=O)N1CCC2(CC1)C(=O)N(Cc1ncc3ccccc3c1-c1cccnc1)c1cnccc12", "note": "[Example 146b, 1-Acetyl-1′-((4-(pyridin-3-yl)isoquinolin-3-yl)methyl)spiro[piperidine-4,3′-pyrrolo[2,3-c]pyridin]-2′(1′H)-one]", "EC50": 2.8},
      {"molecule": "NC1(C(=O)N2CCC3(CC2)C(=O)N(Cc2ncc4ccccc4c2-c2nccs2)c2cnccc23)CC1", "note": "[Example 2012]", "EC50": 380},
      {"molecule": "NCc1ccc2c(CCCCO)c(Cn3c(=O)n(C4CC4)c4ccncc43)ncc2c1", "note": "[Example 26, 3-((7-(Aminomethyl)-4-(4-hydroxybutyl)isoquinolin-3-yl)methyl)-1-cyclopropyl-1H-imidazo[4,5-c]pyridin-2(3H)-one]", "EC50": 5.9},
      {"molecule": "COC(=O)N1CC2(C1)C(=O)N(Cc1ncc3ccccc3c1CCCCO)c1ccccc12", "note": "[Example 28b, Methyl 1′-((4-(4-hydroxybutyl)isoquinolin-3-yl)methyl)-2′-oxospiro[azetidine-3,3′-indoline]-1-carboxylate]", "EC50": 6.8},
      {"molecule": "NC(=O)N1CC2(C1)C(=O)N(Cc1ncc3ccccc3c1CCCCO)c1ccccc12", "note": "[Example 55, 1′-((4-(4-hydroxybutyl)isoquinolin-3-yl)methyl)-2′-oxospiro[azetidine-3,3′-indoline]-1-carboxamide]", "EC50": 4.6},
      {"molecule": "CC1(S(=O)(=O)N2CCC3(CC2)C(=O)N(Cc2ncc4ccccc4c2CCCCO)c2cnccc23)CC1", "note": "[Example 54, 1′-((4-(4-hydroxybutyl)isoquinolin-3-yl)methyl)-1-((1-methylcyclopropyl)sulfonyl)spiro[piperidine-4,3′-pyrrolo[2,3-c]pyridin]-2′(1′H)-one]", "EC50": 6},
      {"molecule": "O=C(C1CCNCC1)N1CCC2(CC1)C(=O)N(Cc1ncc3ccccc3c1-c1cccnc1)c1cnccc12", "note": "[Example 140, 1-(piperidine-4-carbonyl)-1′-((4-(pyridin-3-yl)isoquinolin-3-yl)methyl)spiro[piperidine-4,3′-pyrrolo[2,3-c]pyridin]-2′(1′H)-one]", "EC50": 3.4},
      {"molecule": "CS(=O)(=O)N1CCC2(CC1)C(=O)N(Cc1ncc3ccccc3c1-c1ccc(C3(N)CC3)nc1)c1cnccc12", "note": "[Example 2026]", "EC50": 2.2},
      {"molecule": "CS(=O)(=O)N1CCC2(CC1)C(=O)N(Cc1ncc3ccccc3c1-c1cc[nH]c1)c1cnccc12", "note": "[Example 2023]", "EC50": 43},
      {"molecule": "CS(=O)(=O)N1CCC2(CC1)C(=O)N(Cc1ncc3ccccc3c1-c1ccncc1)c1cnccc12", "note": "[Example 2014]", "EC50": 2.6},
      {"molecule": "O=c1n(Cc2ncc3ccccc3c2CCCC(F)(F)F)c2cnccc2n1C1CC1", "note": "[Example 8e, 1-cyclopropyl-3-((4-(4,4,4-trifluorobutyl)isoquinolin-3-yl)methyl)-1H-imidazo[4,5-c]pyridin-2(3H)-one]", "EC50": 9},
      {"molecule": "CS(=O)(=O)N1CCC2(CC1)C(=O)N(Cc1ncc3ccccc3c1-c1ccc(F)nc1)c1cnccc12", "note": "[Example 110b, 1′-((4-(6-fluoropyridin-3-yl)isoquinolin-3-yl)methyl)-1-(methylsulfonyl)spiro[piperidine-4,3′-pyrrolo[2,3-c]pyridin]-2′(1′H)-one]", "EC50": 0.86},
      {"molecule": "O=C1N(Cc2ncc3ccccc3c2-c2cccnc2)c2cnccc2C12CCN(S(=O)(=O)CC(F)(F)F)CC2", "note": "[Example 139, 1′-((4-(pyridin-3-yl)isoquinolin-3-yl)methyl)-1-((2,2,2-trifluoroethyl)sulfonyl)spiro[piperidine-4,3′-pyrrolo[2,3-c]pyridin]-2′(1′H)-one]", "EC50": 7.2},
      {"molecule": "CS(=O)(=O)N1CC2(C1)C(=O)N(Cc1ncc3ccccc3c1-c1ccc(F)cc1)c1ccccc12", "note": "[Example 74]", "EC50": 5.8},
      {"molecule": "CS(=O)(=O)N1CCC2(CC1)C(=O)N(Cc1ncc3cc(Cl)ccc3c1-c1cncs1)c1ccccc12", "note": "[Example 169b, 1-((7-chloro-4-(thiazol-5-yl)isoquinolin-3-yl)methyl)-1′-(methylsulfonyl)spiro[indoline-3,4′-piperidin]-2-one]", "EC50": 1.3},
      {"molecule": "N[C@H]1CCN(c2ccc3c(CCCCO)c(Cn4c(=O)n(C5CC5)c5ccncc54)ncc3c2)C1", "note": "[Example 33, (S)-3-((7-(3-aminopyrrolidin-1-yl)-4-(4-hydroxybutyl)isoquinolin-3-yl)methyl)-1-cyclopropyl-1H-imidazo[4,5-c]pyridin-2(3H)-one]", "EC50": 1300},
      {"molecule": "CC1(n2c(=O)n(Cc3ncc4ccccc4c3CCCCO)c3cnccc32)CC1", "note": "[Example 52b, 3-((4-(4-hydroxybutyl)isoquinolin-3-yl)methyl)-1-(1-methylcyclopropyl)-1H-imidazo[4,5-c]pyridin-2(3H)-one]", "EC50": 2.6},
      {"molecule": "NCC(=O)N1CC2(C1)C(=O)N(Cc1ncc3ccccc3c1-c1cccnc1)c1ccccc12", "note": "[Example 152, 1-(2-Aminoacetyl)-1′-((4-(pyridin-3-yl)isoquinolin-3-yl)methyl)spiro[azetidine-3,3′-indolin]-2′-one]", "EC50": 12}
    ]}
  ]
}
